Laboratory results reported in ChEMBL document CHEMBL4507303, “Data for DCP probe TP-004” (2021).
Calls of active or inactive are those of the source.

Legend:
[1] = biological target: Methionine aminopeptidase 2 (Homo sapiens, UniProt P50579); assay: Biochemical activity-MetAP2 using Mn
[2] = system: Tyrosine-protein kinase ABL1 (Homo sapiens), P00519 [T315I]; details: Compound concentration 1000.0 nM
[3] = biological target: Activin receptor type-1-like (Homo sapiens) (UniProt P37023); details: Compound concentration 1000.0 nM
[4] = biological target: Bone morphogenetic protein receptor type-1A (Homo sapiens) (UniProt P36894); details: Compound concentration 1000.0 nM
[5] = biological target: Calcium/calmodulin-dependent protein kinase type 1D (Homo sapiens) (UniProt Q8IU85); details: Compound concentration 1000.0 nM
[6] = biological target: Calcium/calmodulin-dependent protein kinase type II subunit beta (Homo sapiens) (UniProt Q13554); details: Compound concentration 1000.0 nM
[7] = biological target: Cyclin-dependent kinase 8 (Homo sapiens) (UniProt P49336); details: Compound concentration 1000.0 nM
[8] = biological target: Cyclin-dependent kinase-like 5 (Homo sapiens) (UniProt O76039); details: Compound concentration 1000.0 nM
[9] = system: Fibroblast growth factor receptor 3 (Homo sapiens), P22607 [G697C]; details: Compound concentration 1000.0 nM
[10] = biological target: Tyrosine-protein kinase Fgr (Homo sapiens) (UniProt P09769); details: Compound concentration 1000.0 nM
[11] = system: Receptor-type tyrosine-protein kinase FLT3 (Homo sapiens), P36888 [D835H]; details: Compound concentration 1000.0 nM
[12] = system: Receptor-type tyrosine-protein kinase FLT3 (Homo sapiens), P36888 [D835Y]; details: Compound concentration 1000.0 nM
[13] = system: Receptor-type tyrosine-protein kinase FLT3 (Homo sapiens), P36888 [UNDEFINED MUTATION]; details: Compound concentration 1000.0 nM
[14] = system: Receptor-type tyrosine-protein kinase FLT3 (Homo sapiens), P36888 [K663Q]; details: Compound concentration 1000.0 nM
[15] = biological target: Glycogen synthase kinase-3 alpha (Homo sapiens) (UniProt P49840); details: Compound concentration 1000.0 nM
[16] = biological target: Hormonally up-regulated neu tumor-associated kinase (Homo sapiens) (UniProt P57058); details: Compound concentration 1000.0 nM
[17] = biological target: Tyrosine-protein kinase JAK1 (Homo sapiens) (UniProt P23458); details: Compound concentration 1000.0 nM
[18] = biological target: Tyrosine-protein kinase JAK2 (Homo sapiens) (UniProt O60674); details: Compound concentration 1000.0 nM
[19] = biological target: MAP kinase-activated protein kinase 5 (Homo sapiens) (UniProt Q8IW41); details: Compound concentration 1000.0 nM
[20] = biological target: Tyrosine-protein kinase Mer (Homo sapiens) (UniProt Q12866); details: Compound concentration 1000.0 nM
[21] = biological target: Hepatocyte growth factor receptor (Homo sapiens) (UniProt P08581); details: Compound concentration 1000.0 nM
[22] = biological target: Dual specificity mitogen-activated protein kinase kinase 7 (Homo sapiens) (UniProt O14733); details: Compound concentration 1000.0 nM
[23] = biological target: MAP kinase-interacting serine/threonine-protein kinase 1 (Homo sapiens) (UniProt Q9BUB5); details: Compound concentration 1000.0 nM
[24] = biological target: Serine/threonine-protein kinase 38-like (Homo sapiens) (UniProt Q9Y2H1); details: Compound concentration 1000.0 nM
[25] = biological target: Serine/threonine-protein kinase Nek11 (Homo sapiens) (UniProt Q8NG66); details: Compound concentration 1000.0 nM
[26] = biological target: Serine/threonine-protein kinase Nek2 (Homo sapiens) (UniProt P51955); details: Compound concentration 1000.0 nM
[27] = biological target: Mitogen-activated protein kinase 12 (Homo sapiens) (UniProt P53778); details: Compound concentration 1000.0 nM
[28] = biological target: Serine/threonine-protein kinase PAK 2 (Homo sapiens) (UniProt Q13177); details: Compound concentration 1000.0 nM
[29] = biological target: Phosphatidylinositol 4-kinase beta (Homo sapiens) (UniProt Q9UBF8); details: Compound concentration 1000.0 nM
[30] = biological target: Serine/threonine-protein kinase PknB (Mycobacterium tuberculosis) (UniProt P9WI81); details: Compound concentration 1000.0 nM
[31] = biological target: Ribosomal protein S6 kinase alpha-1 (Homo sapiens) (UniProt Q15418); details: Compound concentration 1000.0 nM
[32] = biological target: Ribosomal protein S6 kinase alpha-3 (Homo sapiens) (UniProt P51812); details: Compound concentration 1000.0 nM
[33] = biological target: NUAK family SNF1-like kinase 2 (Homo sapiens) (UniProt Q9H093); details: Compound concentration 1000.0 nM
[34] = biological target: Proto-oncogene tyrosine-protein kinase Src (Homo sapiens) (UniProt P12931); details: Compound concentration 1000.0 nM
[35] = biological target: Serine/threonine-protein kinase 35 (Homo sapiens) (UniProt Q8TDR2); details: Compound concentration 1000.0 nM
[36] = biological target: Serine/threonine-protein kinase tousled-like 1 (Homo sapiens) (UniProt Q9UKI8); details: Compound concentration 1000.0 nM
[37] = biological target: Testis-specific serine/threonine-protein kinase 3 (Homo sapiens) (UniProt Q96PN8); details: Compound concentration 1000.0 nM
[38] = biological target: Serine/threonine-protein kinase ULK2 (Homo sapiens) (UniProt Q8IYT8); details: Compound concentration 1000.0 nM
[39] = biological target: 5-hydroxytryptamine receptor 1E (Homo sapiens) (UniProt P28566); details: Compound concentration 10.0 uM
[40] = biological target: 5-hydroxytryptamine receptor 2B (Homo sapiens) (UniProt P41595); details: Compound concentration 10.0 uM
[41] = biological target: 5-hydroxytryptamine receptor 3A (Homo sapiens) (UniProt P46098); details: Compound concentration 10.0 uM
[42] = biological target: Muscarinic acetylcholine receptor M1 (Homo sapiens) (UniProt P11229); details: Compound concentration 10.0 uM
[43] = biological target: GABA-A receptor; anion channel (Rattus norvegicus) (UniProt O09028+P15431+P18506+P18508+P19969+P20236+P23574+P23576+P28471+P28473+P30191+P62813+P63079+P63138+Q91ZM7+Q9ES14); details: Compound concentration 10.0 uM

Chain of Serine/threonine-protein kinase 35 (Homo sapiens) (Q8TDR2 whole entry): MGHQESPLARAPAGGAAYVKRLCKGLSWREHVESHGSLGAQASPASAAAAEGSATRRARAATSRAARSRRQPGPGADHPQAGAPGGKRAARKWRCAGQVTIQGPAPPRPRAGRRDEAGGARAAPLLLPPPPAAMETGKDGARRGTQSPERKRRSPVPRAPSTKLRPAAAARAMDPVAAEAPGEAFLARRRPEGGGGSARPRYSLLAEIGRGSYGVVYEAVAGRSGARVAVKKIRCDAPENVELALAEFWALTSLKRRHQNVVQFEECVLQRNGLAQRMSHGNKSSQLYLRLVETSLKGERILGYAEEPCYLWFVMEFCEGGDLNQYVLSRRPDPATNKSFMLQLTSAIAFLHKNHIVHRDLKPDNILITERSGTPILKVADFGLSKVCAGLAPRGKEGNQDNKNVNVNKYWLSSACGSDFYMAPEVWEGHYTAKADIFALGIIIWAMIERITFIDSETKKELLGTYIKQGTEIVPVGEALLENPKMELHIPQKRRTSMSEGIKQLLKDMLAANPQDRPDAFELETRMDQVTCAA
Chain of Ribosomal protein S6 kinase alpha-1 (Homo sapiens) (Q15418 whole entry): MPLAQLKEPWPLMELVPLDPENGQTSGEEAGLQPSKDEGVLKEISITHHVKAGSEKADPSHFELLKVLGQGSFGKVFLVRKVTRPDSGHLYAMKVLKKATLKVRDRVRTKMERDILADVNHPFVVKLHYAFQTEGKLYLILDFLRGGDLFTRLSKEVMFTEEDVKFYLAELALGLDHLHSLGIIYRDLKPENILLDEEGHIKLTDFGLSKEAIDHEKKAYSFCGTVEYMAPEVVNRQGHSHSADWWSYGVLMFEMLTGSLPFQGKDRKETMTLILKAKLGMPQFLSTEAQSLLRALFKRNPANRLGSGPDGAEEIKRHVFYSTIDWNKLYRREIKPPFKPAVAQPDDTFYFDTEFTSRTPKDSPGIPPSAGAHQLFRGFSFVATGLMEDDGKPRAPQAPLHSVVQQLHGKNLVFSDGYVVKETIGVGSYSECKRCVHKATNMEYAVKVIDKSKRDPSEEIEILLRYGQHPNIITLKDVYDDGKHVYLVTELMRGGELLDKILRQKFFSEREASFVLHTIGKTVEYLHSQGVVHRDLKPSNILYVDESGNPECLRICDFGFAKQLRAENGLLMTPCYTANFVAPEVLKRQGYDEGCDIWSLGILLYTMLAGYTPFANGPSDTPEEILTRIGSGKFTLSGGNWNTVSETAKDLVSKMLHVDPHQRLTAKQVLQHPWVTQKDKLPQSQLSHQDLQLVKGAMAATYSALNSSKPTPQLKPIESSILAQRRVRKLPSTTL
Chain of Cyclin-dependent kinase 8 (Homo sapiens) (P49336 whole entry): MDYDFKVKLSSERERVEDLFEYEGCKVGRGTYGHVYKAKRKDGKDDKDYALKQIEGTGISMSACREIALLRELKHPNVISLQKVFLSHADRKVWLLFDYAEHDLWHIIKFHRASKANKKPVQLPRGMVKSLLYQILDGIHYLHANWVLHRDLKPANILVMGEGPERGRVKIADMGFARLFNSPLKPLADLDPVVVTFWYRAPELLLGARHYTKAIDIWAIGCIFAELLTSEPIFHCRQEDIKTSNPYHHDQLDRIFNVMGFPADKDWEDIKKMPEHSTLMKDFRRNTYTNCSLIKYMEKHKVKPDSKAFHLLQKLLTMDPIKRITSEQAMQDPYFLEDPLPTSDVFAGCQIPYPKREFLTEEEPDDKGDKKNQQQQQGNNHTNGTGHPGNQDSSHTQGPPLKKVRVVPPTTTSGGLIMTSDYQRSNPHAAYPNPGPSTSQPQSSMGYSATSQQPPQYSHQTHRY
Chain of Serine/threonine-protein kinase PAK 2 (Homo sapiens) (Q13177 whole entry): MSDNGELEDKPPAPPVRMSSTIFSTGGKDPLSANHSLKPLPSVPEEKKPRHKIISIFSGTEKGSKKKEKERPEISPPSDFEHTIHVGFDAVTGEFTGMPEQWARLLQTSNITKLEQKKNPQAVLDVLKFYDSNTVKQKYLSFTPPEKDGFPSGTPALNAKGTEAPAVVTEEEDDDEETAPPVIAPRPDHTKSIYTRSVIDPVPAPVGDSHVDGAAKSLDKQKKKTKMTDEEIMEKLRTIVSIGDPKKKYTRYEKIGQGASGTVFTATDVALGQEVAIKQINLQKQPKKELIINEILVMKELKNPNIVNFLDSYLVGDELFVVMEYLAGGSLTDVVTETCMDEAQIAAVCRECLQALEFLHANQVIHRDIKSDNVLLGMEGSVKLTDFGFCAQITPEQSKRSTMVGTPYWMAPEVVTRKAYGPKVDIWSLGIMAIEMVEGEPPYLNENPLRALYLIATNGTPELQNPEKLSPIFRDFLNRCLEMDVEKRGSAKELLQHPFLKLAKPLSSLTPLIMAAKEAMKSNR
Chain of Tyrosine-protein kinase Fgr (Homo sapiens) (P09769 2-529 limits assumed): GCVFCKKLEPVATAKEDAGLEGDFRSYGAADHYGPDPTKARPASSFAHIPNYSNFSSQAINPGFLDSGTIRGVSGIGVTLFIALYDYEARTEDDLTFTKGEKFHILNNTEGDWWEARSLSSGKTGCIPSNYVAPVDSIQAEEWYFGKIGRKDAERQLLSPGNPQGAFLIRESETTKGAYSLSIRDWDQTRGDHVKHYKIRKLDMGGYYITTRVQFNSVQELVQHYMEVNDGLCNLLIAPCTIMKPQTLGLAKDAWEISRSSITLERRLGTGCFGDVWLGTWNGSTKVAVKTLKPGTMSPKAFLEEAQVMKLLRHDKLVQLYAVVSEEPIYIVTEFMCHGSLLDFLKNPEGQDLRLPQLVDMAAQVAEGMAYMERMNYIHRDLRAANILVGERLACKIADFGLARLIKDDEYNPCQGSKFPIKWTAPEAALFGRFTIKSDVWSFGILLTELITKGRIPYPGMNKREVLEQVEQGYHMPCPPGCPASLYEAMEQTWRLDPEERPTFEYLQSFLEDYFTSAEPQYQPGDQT
Chain of Bone morphogenetic protein receptor type-1A (Homo sapiens) (P36894 whole entry): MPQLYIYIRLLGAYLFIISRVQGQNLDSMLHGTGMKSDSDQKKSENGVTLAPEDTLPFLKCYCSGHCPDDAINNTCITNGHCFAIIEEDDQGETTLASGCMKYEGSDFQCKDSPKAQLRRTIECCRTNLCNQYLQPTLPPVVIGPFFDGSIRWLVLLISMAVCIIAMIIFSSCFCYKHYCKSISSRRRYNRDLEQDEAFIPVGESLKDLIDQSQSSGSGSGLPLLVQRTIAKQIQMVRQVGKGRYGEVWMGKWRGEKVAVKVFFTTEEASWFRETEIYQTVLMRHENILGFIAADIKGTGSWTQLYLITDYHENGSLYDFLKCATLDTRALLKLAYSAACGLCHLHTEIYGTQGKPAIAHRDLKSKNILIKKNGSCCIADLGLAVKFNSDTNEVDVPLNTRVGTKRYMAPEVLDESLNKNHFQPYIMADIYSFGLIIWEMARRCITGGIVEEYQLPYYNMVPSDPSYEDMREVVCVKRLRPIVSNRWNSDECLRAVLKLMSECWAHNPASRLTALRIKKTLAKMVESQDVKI
Chain of Fibroblast growth factor receptor 3 (Homo sapiens), P22607 [G697C] (P22607 whole entry G697C): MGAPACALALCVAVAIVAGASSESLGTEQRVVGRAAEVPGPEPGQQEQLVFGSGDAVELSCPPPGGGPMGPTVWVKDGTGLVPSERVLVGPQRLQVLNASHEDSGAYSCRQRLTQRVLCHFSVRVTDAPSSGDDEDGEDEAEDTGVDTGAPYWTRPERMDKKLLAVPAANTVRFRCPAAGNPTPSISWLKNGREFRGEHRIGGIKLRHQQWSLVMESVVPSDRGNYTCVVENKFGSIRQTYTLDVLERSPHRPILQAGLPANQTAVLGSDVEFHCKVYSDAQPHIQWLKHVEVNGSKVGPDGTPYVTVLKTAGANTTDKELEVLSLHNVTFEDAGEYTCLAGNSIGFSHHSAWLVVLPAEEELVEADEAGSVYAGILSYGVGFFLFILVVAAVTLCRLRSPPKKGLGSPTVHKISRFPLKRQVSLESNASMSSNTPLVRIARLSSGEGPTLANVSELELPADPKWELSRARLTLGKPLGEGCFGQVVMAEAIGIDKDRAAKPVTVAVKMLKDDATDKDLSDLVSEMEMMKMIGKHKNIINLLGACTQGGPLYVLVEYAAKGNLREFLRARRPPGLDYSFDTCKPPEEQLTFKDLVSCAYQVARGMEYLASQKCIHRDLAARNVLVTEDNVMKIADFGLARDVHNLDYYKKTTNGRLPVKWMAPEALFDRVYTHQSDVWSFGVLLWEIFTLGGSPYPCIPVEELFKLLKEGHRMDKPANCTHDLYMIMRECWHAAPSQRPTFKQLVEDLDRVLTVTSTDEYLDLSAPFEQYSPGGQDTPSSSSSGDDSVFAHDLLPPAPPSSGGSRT
Chain of Mitogen-activated protein kinase 12 (Homo sapiens) (P53778 whole entry): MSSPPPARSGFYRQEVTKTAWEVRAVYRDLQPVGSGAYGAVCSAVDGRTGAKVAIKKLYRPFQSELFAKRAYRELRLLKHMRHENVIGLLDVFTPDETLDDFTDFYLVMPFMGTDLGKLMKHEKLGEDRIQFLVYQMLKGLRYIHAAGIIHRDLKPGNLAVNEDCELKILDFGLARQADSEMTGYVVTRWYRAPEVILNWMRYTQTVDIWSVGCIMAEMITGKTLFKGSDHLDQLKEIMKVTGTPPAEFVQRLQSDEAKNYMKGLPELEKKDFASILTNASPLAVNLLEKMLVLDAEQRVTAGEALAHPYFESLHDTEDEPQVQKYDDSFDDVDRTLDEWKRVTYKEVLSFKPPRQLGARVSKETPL
Chain of Calcium/calmodulin-dependent protein kinase type 1D (Homo sapiens) (Q8IU85 whole entry, looked up): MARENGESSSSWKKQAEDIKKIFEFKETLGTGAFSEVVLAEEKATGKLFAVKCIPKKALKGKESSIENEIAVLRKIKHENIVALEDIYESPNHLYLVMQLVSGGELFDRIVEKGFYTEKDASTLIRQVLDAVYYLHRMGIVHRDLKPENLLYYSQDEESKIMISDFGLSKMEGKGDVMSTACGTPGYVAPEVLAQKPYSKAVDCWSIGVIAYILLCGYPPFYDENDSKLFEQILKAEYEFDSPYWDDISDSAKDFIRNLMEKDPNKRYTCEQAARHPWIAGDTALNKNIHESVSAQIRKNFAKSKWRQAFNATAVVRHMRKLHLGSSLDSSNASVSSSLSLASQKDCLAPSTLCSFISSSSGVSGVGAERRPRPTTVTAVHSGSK

Cc1nc(N2CC[C@@H](O)C2)ncc1-c1cc(C(F)(F)F)cc2[nH]ncc12 [TP-004]
active: IC50 [1] 7 nM | residual activity [32] 48% | inhibition [43] 54.3%
inactive: residual activity [2] 69% | residual activity [3] 100% | residual activity [4] 100% | residual activity [5] 100% | residual activity [6] 100% | residual activity [7] 88% | residual activity [8] 77% | residual activity [9] 90% | residual activity [10] 100% | residual activity [11] 100% | residual activity [12] 80% | residual activity [13] 100% | residual activity [14] 89% | residual activity [15] 54% | residual activity [16] 100% | residual activity [17] 100% | residual activity [18] 61% | residual activity [19] 68% | residual activity [20] 100% | residual activity [21] 100% | residual activity [22] 64% | residual activity [23] 61% | residual activity [24] 87% | residual activity [25] 87% | residual activity [26] 92% | residual activity [27] 100% | residual activity [28] 100% | residual activity [29] 53% | residual activity [30] 89% | residual activity [31] 100% | residual activity [33] 67% | residual activity [34] 95% | residual activity [35] 100% | residual activity [36] 100% | residual activity [37] 100% | residual activity [38] 66% | inhibition [39] -5.65% | inhibition [40] -1.83% | inhibition [41] 6.06% | inhibition [42] 1.12%
